Reference: patent publication US20050130983A1, “Pyrrolopyrimidinone derivatives, process for preparation thereof, and method of using and composition comprising them” (priority 2002, published 2005)

| Structure (SMILES) | melting point [°C] |
| --- | --- |
| CCCOc1ccc(S(=O)(=O)N2CCN(CCOC(=O)OCC)CC2)cc1-c1nc2c(CCC)cn(CC)c2c(=O)[nH]1 [Example 17, 2-{5-[4-(2-Ethoxycarbonyloxyethyl)piperazin-1-ylsulfonyl]-2-n-propoxyphenyl}-5-ethyl-7-n-propyl-3,5-dihydro-4H-pyrrolo[3,2-d]pyrimidin-4-one] | 135 to 136 |
| CCCOc1ccc(S(=O)(=O)N2CCN(CCOC(C)=O)CC2)cc1-c1nc2c(CCC)cn(CC)c2c(=O)[nH]1 [Example 7, 2-{5-[4-(2-Acetoxyethyl)piperazin-1-ylsulfonyl]-2-n-propoxyphenyl}-5-ethyl-7-n-propyl-3,5-dihydro-4H-pyrrolo[3,2-d]pyrimidin-4-one] | 139 to 140 |
| CCCOc1ccc(S(=O)(=O)N2CCN(CCOC(=O)C(C)C)CC2)cc1-c1nc2c(CCC)cn(CC)c2c(=O)[nH]1 [Example 14, 5-Ethyl-2-{5-[4-(2-isobutyryloxyethyl)piperazin-1-ylsulfonyl]-2-n-propoxyphenyl}-7-n-propyl-3,5-dihydro-4H-pyrrolo[3,2-d]pyrimidin-4-one] | 88 to 89 |
| CCCOc1ccc(S(=O)(=O)N2CCN(CCOC(=O)CCC)CC2)cc1-c1nc2c(CCC)cn(CC)c2c(=O)[nH]1 [Example 12, 2-{5-[4-(2-Butyryloxyethyl)piperazin-1-ylsulfonyl]-2-n-propoxyphenyl}-5-ethyl-7-n-propyl-3,5-dihydro-4H-pyrrolo[3,2-d]pyrimidin-4-one] | 71.5 to 73 |
| CCCc1cn(C)c2c(=O)[nH]c(-c3cc(S(=O)(=O)N4CCN(CCCOC(C)=O)CC4)ccc3OCC)nc12 [Example 6, 2-{5-[4-(3-Acetoxypropyl)piperazin-1-ylsulfonyl]-2-ethoxyphenyl}-5-methyl-7-n-propyl-3,5-dihydro-4H-pyrrolo[3,2-d]pyrimidin-4-one] | 157 to 158.5 |
| CCCOc1ccc(S(=O)(=O)N2CCN(CCOC(=O)c3ccccc3)CC2)cc1-c1nc2c(CCC)cn(CC)c2c(=O)[nH]1 [Example 16, 2-{5-[4-(2-Benzoyloxyethyl)piperazin-1-ylsulfonyl]-2-n-propoxyphenyl}-5-ethyl-7-n-propyl-3,5-dihydro-4H-pyrrolo[3,2-d]pyrimidin-4-one] | 78 to 79 |
| CCCOc1ccc(S(=O)(=O)N2CCN(CCOC(=O)CC)CC2)cc1-c1nc2c(CCC)cn(CC)c2c(=O)[nH]1 [Example 10, 5-Ethyl-2-{5-[4-(2-propionyloxyethyl)piperazin-1-ylsulfonyl]-2-n-propoxyphenyl}-7-n-propyl-3,5-dihydro-4H-pyrrolo[3,2-d]pyrimidin-4-one] | 126.5 to 127.5 |
| CCCOc1ccc(S(=O)(=O)N2CCN(CCOC(C)=O)CC2)cc1-c1nc2c(CCCF)cn(CC)c2c(=O)[nH]1 [Example 19, 2-{5-[4-(2-Acetoxyethyl)piperazin-1-ylsulfonyl]-2-n-propoxyphenyl}-5-ethyl-7-(3-fluoropropyl)-3,5-dihydro-4H-pyrrolo[3,2-d]pyrimidin-4-one] | 134 to 135 |
